Measured values published in patent US20050227306A1, “Fluorescence polarization assay to detect protease cleavage” (priority 2003, published 2005).

What was measured:
TEV protease = molecular target: T1, TEV protease (Tobacco etch virus, UniProt P04517); assay: Effect of additives on TEV protease cleavage measured by fluorescence polarization; assay type: biochemical; details: At3g16990 in pVP15 substrate, 0.5 μM TEV protease, pH 8.0, ca. 22° C.; increasing additive concentrations
T1 construct: TEV Protease, 0.5 μM
T1 sequence (P04517 2038-2279): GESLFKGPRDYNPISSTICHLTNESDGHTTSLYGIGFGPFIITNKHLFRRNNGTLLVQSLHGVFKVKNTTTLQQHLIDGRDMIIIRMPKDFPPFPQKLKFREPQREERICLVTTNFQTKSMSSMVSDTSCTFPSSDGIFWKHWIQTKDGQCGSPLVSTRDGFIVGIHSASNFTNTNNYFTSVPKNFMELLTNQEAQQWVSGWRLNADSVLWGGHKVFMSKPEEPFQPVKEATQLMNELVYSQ
Excerpt: The following series of Examples exemplify the efficacy of using the disclosed invention in measuring protease cleavage in the presence of various potentially interfering compounds. Briefly, each reaction comprised mixing three components: 1) a mixture of labeled and unlabeled protease substrates; 2) TEV protease; and 3) the potentially interfering additive. The results are presented graphically in FIGS. 3-14 The reaction buffer contained the following components (final concentrations noted):
Each stated additive as shown in FIGS. 3-14 was added at the stated concentrations. The TEV protease was added to each reaction last, just prior to placing the reactions into the photometer. The reactions were followed in real-time, at ambient temperature (ca. 22° C.). Fluorescence anisotropy was measured at the time points noted in FIGS. 3-14.
The following figures present the fluorescence data for each of the stated additives: FIG. 3: urea (M), FIG. 4: sucrose concentration (M), FIG. 5: sodium dodecylsulfate (SDS) (wt/vol %), FIG. 6: sodium chloride (NaCl) (M), FIG. 7: guanidium hydrochloride (M), FIG. 8: glycine concentration (wt/vol %), FIG. 9: glycerol concentration (vol/vol %), FIG. 10: ethanol concentration (vol/vol %), FIG. 11: ethylene glycol concentration (vol/vol %), FIG. 12: dimethylsulfoxide (DMSO) (vol/vol %), FIG. 13: calcium chloride (CaCl2) (M), and FIG. 14: arginine (wt/vol %).
Fluorescence anisotropy was measured using a Tecan 384 Ultra plate spectrofluorimeter. Excitation was at 485 nm (25 nm bandpass) and emission was measured at 525 nm (20 nm bandpass). Anisotropy measurements were made at 2 to 5 min intervals for 5 hours. The observed anisotropy is the sum of the anisotropy of the individual fluorescent components, or robs=Σfiri, where robs, is the observed anisotropy, fi is the fractional fluorescence intensity of component i, and ri is the anisotropy of component i. See J. Lakowicz, “Principles of fluorescence spectroscopy,” Kluwer Academic/Plenum Publishers, New York, 1999. For a two-state system with the fluorophore attached to either the intact fusion protein or to the small peptide produced by proteolysis, the fractional extent of reaction is given by ξ=(rf−robs)/(rf−rc), where rf is the fluorescence anisotropy of the intact fusion protein and rc is the fluorescence anisotropy of small peptide. This treatment assumes that there is no difference in the fluorescence intensity of the fluorophore attached to either the fusion protein or the small peptide, and this is justified by the observation that there was no significant change in total fluorescence intensity as the reactions proceeded.

[1] = tested on: substrate 26-F (His6-tetraCys-X-MBP); assay: Fluorescence anisotropy proteolysis assay with substrate 26-F; assay type: biochemical, E. coli; details: initial rate by fluorescence anisotropy, normalized to the rate of the protease with its preferred cognate substrate
Excerpt: (§1) All protease substrates were expressed in E. coli Rosetta pLacI Rare to provide compensation for rare codons (see Kirienko et al. (2004) Biochemistry (Mosc) 69:527-535; available commercially from Novagen, a wholly-owned subsidiary of EMD Biosciences, Inc., Madison, Wis.). The expression was done in 2-L PET bottles (Millard et al. (2003) Protein Expr. Purif. 29:311-320). The protein purification followed typical IMAC purification procedures (see Sambrook & Russell, supra) including elution in an imidazole gradient from 0-350 mM. After SDS-PAGE analysis, appropriate fractions were pooled and desalted into 20 mM phosphate, pH 7.5, containing 100 mM NaCl and 0.3 mM TCEP. […]
(§2) Protease assays were conducted using a combination of 20 μM unlabeled and 40 nM labeled protease substrates unless noted otherwise. […] This decreased the amount of time between mixing and measurement to less than three minutes and allowed the fluorescence anisotropy measured at the first time point to closely approximate the anisotropy of the intact fusion protein. […]
(§3) Fluorescence anisotropy was measured using a Tecan 384 Ultra plate spectrofluorimeter. Excitation was at 485 nm (25 nm bandpass) and emission was measured at 525 nm (20 nm bandpass). […] See J. Lakowicz, “Principles of fluorescence spectroscopy,” Kluwer Academic/Plenum Publishers, New York, 1999. […]

[2] = tested on: substrate 22-F (His6-tetraCys-X-MBP); assay: Fluorescence anisotropy proteolysis assay with substrate 22-F; assay type: biochemical, E. coli; details: for Relative rate of reaction, substrate 22F: initial rate by fluorescence anisotropy, normalized to the rate of the protease with its preferred cognate substrate
Excerpt: (§4) All protease substrates were expressed in E. coli Rosetta pLacI Rare to provide compensation for rare codons (see Kirienko et al. (2004) Biochemistry (Mosc) 69:527-535; available commercially from Novagen, a wholly-owned subsidiary of EMD Biosciences, Inc., Madison, Wis.). The expression was done in 2-L PET bottles (Millard et al. (2003) Protein Expr. Purif. 29:311-320). The protein purification followed typical IMAC purification procedures (see Sambrook & Russell, supra) including elution in an imidazole gradient from 0-350 mM. After SDS-PAGE analysis, appropriate fractions were pooled and desalted into 20 mM phosphate, pH 7.5, containing 100 mM NaCl and 0.3 mM TCEP. Proteins were concentrated to a final concentration of 300-600 μM using centrifugal concentrators. Glycerol (50% v/v) was added to all protease substrates except 26-F and frozen at −20° C. The Arabidopsis targets At3g03410 (expressed from pVP14) and At3g16990 (expressed from pVP15) were flash frozen as drops in liquid nitrogen and stored at −80° C.
(§5) A 20% molar excess of the tetraCys reagent was incubated overnight (˜12 h) with protein (10-100 μg) at room temperature in 20 mM phosphate, pH 7.5, containing 100 mM NaCl, 0.3 mM TCEP, and 1 mM β-mercaptoethanol. After the labeling reaction, unincorporated fluorophore was removed by two successive cycles of 10-fold dilution and concentration using centrifugal concentrators.
Protease assays were conducted using a combination of 20 μM unlabeled and 40 nM labeled protease substrates unless noted otherwise. TEV protease reactions were conducted in 20 mM Tris-HCl, pH 8.0, containing 100 mM NaCl, 0.3 mM TCEP, 1 mM β-mercaptoethanol, and 5 mM EDTA. Reactions with thrombin, enterokinase, and Factor Xa were performed in the buffer supplied by the manufacturer. Trypsin reactions were carried out in the buffer supplied for thrombin. Assays were carried out in black Cliniplate 384 well plates in a 40 μL reaction volume or in black Greiner 384 well plates using an 80 μL reaction volume. […] This decreased the amount of time between mixing and measurement to less than three minutes and allowed the fluorescence anisotropy measured at the first time point to closely approximate the anisotropy of the intact fusion protein. […]
Fluorescence anisotropy was measured using a Tecan 384 Ultra plate spectrofluorimeter. Excitation was at 485 nm (25 nm bandpass) and emission was measured at 525 nm (20 nm bandpass). […] The observed anisotropy is the sum of the anisotropy of the individual fluorescent components, or robs=Σfiri, where robs, is the observed anisotropy, fi is the fractional fluorescence intensity of component i, and ri is the anisotropy of component i. See J. Lakowicz, “Principles of fluorescence spectroscopy,” Kluwer Academic/Plenum Publishers, New York, 1999. For a two-state system with the fluorophore attached to either the intact fusion protein or to the small peptide produced by proteolysis, the fractional extent of reaction is given by ξ=(rf−robs)/(rf−rc), where rf is the fluorescence anisotropy of the intact fusion protein and rc is the fluorescence anisotropy of small peptide. This treatment assumes that there is no difference in the fluorescence intensity of the fluorophore attached to either the fusion protein or the small peptide, and this is justified by the observation that there was no significant change in total fluorescence intensity as the reactions proceeded. […]

[3] = tested on: substrate 23-F (His6-tetraCys-X-MBP); assay: Fluorescence anisotropy proteolysis assay with substrate 23-F; assay type: biochemical, E. coli; details: initial rate by fluorescence anisotropy, normalized to the rate of the protease with its preferred cognate substrate
Excerpt: as §1, §2, §3

[4] = tested on: substrate 24-F (His6-tetraCys-X-MBP); assay: Fluorescence anisotropy proteolysis assay with substrate 24-F; assay type: biochemical, E. coli; details: initial rate by fluorescence anisotropy, normalized to the rate of the protease with its preferred cognate substrate
Excerpt: as §1, §2, §3

[5] = tested on: substrate 21-F (His6-tetraCys-X-MBP); assay: Fluorescence anisotropy proteolysis assay with substrate 21-F; assay type: biochemical, E. coli; details: initial rate by fluorescence anisotropy, normalized to the rate of the protease with its preferred cognate substrate
Excerpt: as §1, §2, §3

[6] = tested on: substrate 25-F (His6-tetraCys-X-MBP); assay: Fluorescence anisotropy proteolysis assay with substrate 25-F; assay type: biochemical, E. coli; details: for Relative rate of reaction, substrate 25F: initial rate by fluorescence anisotropy, normalized to the rate of the protease with its preferred cognate substrate; for Specific reaction rate: substrate 25-F
Excerpt: as §4, §5
Protease assays were conducted using a combination of 20 μM unlabeled and 40 nM labeled protease substrates unless noted otherwise. TEV protease reactions were conducted in 20 mM Tris-HCl, pH 8.0, containing 100 mM NaCl, 0.3 mM TCEP, 1 mM β-mercaptoethanol, and 5 mM EDTA. […] This decreased the amount of time between mixing and measurement to less than three minutes and allowed the fluorescence anisotropy measured at the first time point to closely approximate the anisotropy of the intact fusion protein. […]
Fluorescence anisotropy was measured using a Tecan 384 Ultra plate spectrofluorimeter. Excitation was at 485 nm (25 nm bandpass) and emission was measured at 525 nm (20 nm bandpass). […] The observed anisotropy is the sum of the anisotropy of the individual fluorescent components, or robs=Σfiri, where robs, is the observed anisotropy, fi is the fractional fluorescence intensity of component i, and ri is the anisotropy of component i. See J. Lakowicz, “Principles of fluorescence spectroscopy,” Kluwer Academic/Plenum Publishers, New York, 1999. For a two-state system with the fluorophore attached to either the intact fusion protein or to the small peptide produced by proteolysis, the fractional extent of reaction is given by ξ=(rf−robs)/(rf−rc), where rf is the fluorescence anisotropy of the intact fusion protein and rc is the fluorescence anisotropy of small peptide. […]

[7] = reactions with cognate His6-tetraCys-X-MBP substrates

With `[Ca+2].[Cl-].[Cl-]` [CaCl2, calcium chloride] the “Effect of additive on fractional completion of the TEV protease cleavage reaction” value (TEV protease) was “little or no effect”.

With `C[S+](C)[O-]` [DMSO, dimethylsulfoxide] the “Effect of additive on fractional completion of the TEV protease cleavage reaction” value (TEV protease) was “little or no effect”.

With `[Cl-].[Na+]` [NaCl, sodium chloride] the “Effect of additive on fractional completion of the TEV protease cleavage reaction” value (TEV protease) was “little or no effect”.

With `CCCCCCCCCCCCOS(=O)(=O)[O-].[Na+]` [SDS, sodium dodecylsulfate] the “Effect of additive on fractional completion of the TEV protease cleavage reaction” value (TEV protease) was “considerable inhibition”.

With `N=C(N)NCCC[C@H](N)C(=O)O` [arginine] the “Effect of additive on fractional completion of the TEV protease cleavage reaction” value (TEV protease) was “considerable inhibition”.

With `CCO` [ethanol] the “Effect of additive on fractional completion of the TEV protease cleavage reaction” value (TEV protease) was “considerable inhibition”.

For `OCCO` [ethylene glycol], the “Effect of additive on fractional completion of the TEV protease cleavage reaction” value (TEV protease) was “considerable inhibition”.

With `OCC(O)CO` [glycerol] the “Effect of additive on fractional completion of the TEV protease cleavage reaction” value (TEV protease) was “little or no effect”.

With `NCC(=O)O` [glycine] the “Effect of additive on fractional completion of the TEV protease cleavage reaction” value (TEV protease) was “little or no effect”.

In the case of `Cl.N=C(N)N` [guanidium hydrochloride], the “Effect of additive on fractional completion of the TEV protease cleavage reaction” value (TEV protease) is reported as “considerable inhibition”.

In the case of `OC[C@H]1O[C@@](CO)(O[C@H]2O[C@H](CO)[C@@H](O)[C@H](O)[C@H]2O)[C@@H](O)[C@@H]1O` [sucrose], the “Effect of additive on fractional completion of the TEV protease cleavage reaction” value (TEV protease) is reported as “little or no effect”.

In the case of `NC(N)=O` [urea], the “Effect of additive on fractional completion of the TEV protease cleavage reaction” value (TEV protease) is reported as “considerable inhibition”.

For Thrombin, the “Relative rate of reaction, substrate 26F” value [1] was 0.0, the “Relative rate of reaction, substrate 22F” value [2] was 0.4 and the “Relative rate of reaction, substrate 23F” value [3] was −0.02. The “Relative rate of reaction, substrate 24F” value [4] was 0.0, the “Relative rate of reaction, substrate 21F” value [5] was 0.0 and the “Relative rate of reaction, substrate 25F” value [6] was 1. For the same molecule, the Specific reaction rate ([6]; slope of initial rate versus protease concentration, errors two standard deviations) was 240±20 moles substrate proteolyzed per mole of protease per hour and the Specific reaction rate ([6]; thrombin units adjusted for equivalence with enterokinase and Factor Xa unit definition) was 0.20±0.02 nmole substrate proteolyzed per unit enzyme per hour.

With “Trypsin: protease tested on tetraCys-labeled His6-tetraCys-X-MBP substrates” the “Relative rate of reaction, substrate 22F” value [2] was 1, the “Turnover number, fold greater than for TEV protease” value [2, 7] was 10 fold and the “Turnover number, fold greater than that observed for thrombin” value [2, 7] was 3 fold. For the same molecule, the Specific reaction rate ([2]; substrate 22-F, slope of initial rate versus protease concentration, errors two standard deviations) was 760±60 moles substrate proteolyzed per mole of protease per hour, the “Relative rate of reaction, substrate 23F” value [3] was 0.1 and the “Relative rate of reaction, substrate 24F” value [4] was 0.4. The “Relative rate of reaction, substrate 21F” value [5] was 0.3 and the “Relative rate of reaction, substrate 25F” value [6] was 0.5.
